US10526294B2, “Pyrrolobenzodiazepines and conjugates thereof” (priority 2016, dated 2020)

Legend:
NCI-N87 cells = test: Cell viability assay (CellTiter-Glo), NCI-N87; type: cell-based; conditions: Homo sapiens, HER2 expressing cells, 72 h
Protocol: (§1) Cell Viability Assay for Antibody-Polymer-Drug Conjugates.
(§2) PBD compounds and conjugates thereof were evaluated for their antiproliferation properties in tumor cell lines in vitro using CellTiter-Glo® (Promega Corp). Cells were plated in black walled 96-well plate and allowed to adhere overnight at 37° C. in a humidified atmosphere of 5% CO2. BT474, SKBR3, NCI-N87 cells (HER2 expressing cells), JIMT1 cells (HER2 medium expression level cells) and MCF7 cells (HER2 low expressing levels cells) and were plated at a density of 5,000 cells per well. The next day the medium was replaced with 50 μL fresh medium and 50 μL of 2× stocks of PBD compounds or antibody-PBD conjugate were added to appropriate wells, mixed and incubated for 72 h. CellTiter-Glo® reagent was added to the wells at room temperature and the luminescent signal was measured after 10 min using a SpectraMax M5 plate reader (Molecular Devices). Dose response curves were generated using SoftMax Pro software. IC50 values were determined from four-parameter curve fitting.

MCF7 cells = test: Cell viability assay (CellTiter-Glo), MCF7; type: cell-based; conditions: Homo sapiens, HER2 low expressing levels cells, 72 h
Protocol: as §1, §2

SKBR3 cells = test: Cell viability assay (CellTiter-Glo), SKBR3; type: cell-based; conditions: Homo sapiens, SK-BR-3, HER2 expressing cells, 72 h
Protocol: as §1, §2

BT474 cells = test: Cell viability assay (CellTiter-Glo), BT474; type: cell-based; conditions: Homo sapiens, BT-474, HER2 expressing cells, 72 h
Protocol: as §1, §2

JIMT1 cells = test: Cell viability assay (CellTiter-Glo), JIMT1; type: cell-based; conditions: Homo sapiens, JIMT-1, HER2 medium expression level cells, 72 h
Protocol: as §1, §2

[1] = Phase I clinical evaluation; cited from earlier work

| SMILES | IC50 (NCI-N87 cells; PBD compounds (Table I)) | IC50 (MCF7 cells; PBD compounds (Table I)) | IC50 (SKBR3 cells; PBD compounds (Table I)) | IC50 (BT474 cells; PBD compounds (Table I)) | IC50 (JIMT1 cells; PBD compounds (Table I)) | IC50 (NCI-N87 cells; conjugates (Table II)) | IC50 (MCF7 cells; conjugates (Table II)) | IC50 (SKBR3 cells; conjugates (Table II)) | IC50 (BT474 cells; conjugates (Table II)) | IC50 (JIMT1 cells; conjugates (Table II)) | maximum tolerated dose [1] |
| --- | --- | --- | --- | --- | --- | --- | --- | --- | --- | --- | --- |
| COc1cc2c(cc1OCCCC(=O)Nc1cn(C)c(C(=O)Nc3ccc(-c4cc(C(=O)NCCCO)n(C)c4)cc3)n1)N=C[C@@H]1CCCN1C2=O [Compound 40, (S,Z)—N-(4-(5-(3-hydroxypropylcarbamoyl)-1-methyl-1H-pyrrol-3-yl)phenyl)-4-(4-(7-methoxy-5-oxo-2,3,5,11a-tetrahydro-1H-benzo[e]pyrrolo[1,2-a][1,4]diazepin-8-yloxy)butanamido)-1-methyl-1H-imidazole-2-carboxamide] | 1.7 nM | 5.5 nM | 0.8 nM | 3 nM | 1.3 nM |  |  |  |  |  |  |
| C=C1C[C@H]2C=Nc3cc(OCCCC(=O)Nc4cc(-c5nc6ccc(N)cc6[nH]5)n(C)c4)c(OC)cc3C(=O)N2C1 [Compound 27, (S,Z)—N-(5-(6-amino-1H-benzo[d]imidazol-2-yl)-1-methyl-1H-pyrrol-3-yl)-4-(7-methoxy-2-methylene-5-oxo-2,3,5,11a-tetrahydro-1H-benzo[e]pyrrolo[1,2-a][1,4]diazepin-8-yloxy)butanamide] | 13 nM | 26 nM | 6.1 nM | 27.3 nM | 9 nM |  |  |  |  |  |  |
| C=C1C[C@H]2C=Nc3cc(OCCCC(=O)Nc4cn(C)c(C(=O)Nc5ccc(-c6nc7cc(OC)ccc7[nH]6)cc5)n4)c(OC)cc3C(=O)N2C1 [Compound 106, (S,Z)—N-(4-(5-methoxy-1H-benzo[d]imidazol-2-yl)phenyl)-4-(4-(7-methoxy-2-methylene-5-oxo-2,3,5,11a-tetrahydro-1H-benzo[e]pyrrolo[1,2-a][1,4]diazepin-8-yloxy)butanamido)-1-methyl-1H-imidazole-2-carboxamide] |  |  |  |  |  | 0.21 nM | 0.84 nM | 0.13 nM | 0.73 nM | 0.17 nM |  |
| C=C1C[C@H]2C=Nc3cc(OCCCC(=O)Nc4cc(C(=O)Nc5ccc(-c6cc(C(=O)NCCCO)n(C)c6)cc5)n(C)c4)c(OC)cc3C(=O)N2C1 [Compound 37, (S,Z)—N-(3-hydroxypropyl)-4-(4-(4-(4-(7-methoxy-2-methylene-5-oxo-2,3,5,11a-tetrahydro-1H-benzo[e]pyrrolo[1,2-a][1,4]diazepin-8-yloxy)butanamido)-1-methyl-1H-pyrrole-2-carboxamido)phenyl)-1-methyl-1H-pyrrole-2-carboxamide] | 1 nM | 4.9 nM | 0.9 nM | 2.9 nM | 1 nM |  |  |  |  |  |  |
| C=C1C[C@H]2C=Nc3cc(OCCCOc4cc5c(cc4OC)C(=O)N4CC(=C)C[C@H]4C=N5)c(OC)cc3C(=O)N2C1 [SJG-136] |  |  |  |  |  |  |  |  |  |  | 45 μg/m^2 |
